# From ChEMBL document CHEMBL1201862, “PubChem BioAssay data set” (2004)
#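 Interpolation was linear, between the two tested concentrations surrounding the appropriate level; five concentrations were tested over 48 hours in 96-well plates. The concentration for 50% growth inhibition is given as GI50.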 Activity calls are given as the source filed them. Cut-off read from the data, not from the text of the source: active = GI50 up to about 1.1 µM and inactive = higher. Where a SMILES comes first, the peptide text is derived from it. Non-standard residues stand in square brackets, D forms with d. Residues, ends and D or L forms follow the SMILES beside them. The star is where a group is joined. *: point of attachment. Bn2Val = CC(C)[C@@H](C(=O)*)N(Cc1ccccc1)Cc1ccccc1; NH(4-Cl-benzyl) = Clc1ccc(CN*)cc1; NMeV = CN[C@H](C(=O)O)C(C)C; dNMeA = CN[C@H](C)C(=O)O; Boc = CC(C)(C)OC(=O)*
# Experiments:
# Test in all cases: NCI-60 cell line screen, 48 h
# [1] = system: DMS-114
# [2] = system: KM-20L2
# [3] = system: LXFL 529
# [4] = system: SNB-78
# [5] = system: BT-549
# [6] = system: RXF 631
# [7] = system: DLD-1
# [8] = system: HOP-18
# [9] = system: XF498
Compound,GI50 [2],GI50 [3],GI50 [5],GI50 [7],other results
CN(C)c1ccc(/C=C/C=C\c2cc(/C=C/C=C/c3ccc(N(C)C)cc3)[s+]c3ccccc23)cc1.[O-][Cl+3]([O-])([O-])[O-],> 100 µM (inactive),8.26 µM (inactive),–,–,GI50 [1]: 11.1 µM (inactive); GI50 [4]: 51.4 µM (inactive)
CCOC(=O)NC(Nc1cc(Cl)ccc1OC)(C(F)(F)F)C(F)(F)F,–,–,> 100 µM (inactive),–,–
COc1ccc(-c2cc(-c3ccncc3)nc(N)c2-c2ccc(F)cc2)cc1,–,–,37.4 µM (inactive),–,–
O=C(CCO)OCCCCCC/C=C\CCCCCC/C=C\CCCCCCCCOC(=O)CCO,–,–,19 µM (inactive),–,–
Cc1sc2nc(-c3ccc([N+](=O)[O-])cc3)c(/C=N/N=C(N)N)n2c1C,–,–,1.41 µM (inactive),–,–
Cc1nn(C(=O)c2ccccc2O)c2c1C(c1ccco1)SC(=N)N2 (centres undefined),–,–,> 10 µM (inactive),–,–
CC(C)[C@H](NC(=O)[C@H](C(C)C)N(Cc1ccccc1)Cc1ccccc1)C(=O)N(C)[C@H](C(=O)N1CCC[C@H]1C(=O)N(C)[C@H](C)C(=O)NCc1ccc(Cl)cc1)C(C)C (Bn2Val-V[NMeV]P[dNMeA]-{NH(4-Cl-benzyl)}),–,–,3.18 µM (inactive),–,–
Oc1ccc(Cl)cc1/C=N/c1cnc2ccccc2c1,–,–,22.3 µM (inactive),–,–
COC(=O)/C=C1\C(=O)C=C2[C@@H]3C[C@H]4C[C@H](CC[C@@]4(C)N21)C3(C)NC(C)=O (some centres undefined),–,–,11.1 µM (inactive),–,–
COc1ccccc1NC(=O)C1=C(C)NC(C)=C(C(=O)Nc2ccccc2OC)C1c1ccccc1OC,> 100 µM (inactive),> 100 µM (inactive),–,> 100 µM (inactive),GI50 [1]: 85.5 µM (inactive); GI50 [6]: > 100 µM (inactive); GI50 [8]: > 100 µM (inactive); GI50 [4]: > 100 µM (inactive)
CCCCCCCCC/C=C1\CCC(CN(C)C)C1=O (centres undefined),2.18 µM (inactive),1.34 µM (inactive),–,2.06 µM (inactive),GI50 [1]: 2.26 µM (inactive); GI50 [6]: 2.07 µM (inactive); GI50 [4]: 2.37 µM (inactive)
Cc1cc(-c2c(Br)cc(C(=O)O)n2C)on1,–,–,> 100 µM (inactive),–,–
CN(C)C[C@H]1CC[C@@H](CN(C)C)C1=O,11.2 µM (inactive),6.18 µM (inactive),7.46 µM (inactive),3.94 µM (inactive),GI50 [1]: 8.47 µM (inactive); GI50 [9]: 8.28 µM (inactive); GI50 [8]: 8.02 µM (inactive); GI50 [4]: 10.3 µM (inactive)
Cc1oc(N)c(S(=O)(=O)c2ccc(Cl)cc2)c1C,–,–,17.6 µM (inactive),–,–
CC(=O)C(CN(Cc1ccccc1)Cc1ccccc1)C(c1ccccc1)c1c(O)c2ccccc2oc1=O (centres undefined),> 100 µM (inactive),> 100 µM (inactive),–,> 100 µM (inactive),GI50 [6]: > 100 µM (inactive); GI50 [9]: > 100 µM (inactive); GI50 [4]: > 100 µM (inactive)
S=C1SC(=N\c2ccccc2)/C(=N/c2ccccc2)N1c1ccc2ccccc2c1,–,–,> 100 µM (inactive),–,–
Cc1cc(C)[n+](CCOc2ccc(/C(=C(/Cl)c3ccccc3)c3ccccc3)cc2)c(C)c1.[O-][Cl+3]([O-])([O-])[O-],0.847 µM (active),0.506 µM (active),–,3.47 µM (inactive),GI50 [1]: 1.29 µM (inactive); GI50 [9]: 0.256 µM (active); GI50 [4]: 2 µM (inactive)

Compound,GI50 [2],GI50 [3],GI50 [5],GI50 [7],other results
COc1cc(C2=C(C#N)C(N)OC3=C2COc2ccccc23)cc(OC)c1OC (centres undefined),–,–,42.8 µM (inactive),–,–
CCOC(=O)Cc1ccc(Nc2nc3cc(C(F)(F)F)ccc3nc2C(=O)OCC)cc1,–,–,77.1 µM (inactive),–,–
COC(=O)c1cn(CCCC(=O)O)nn1,–,–,> 100 µM (inactive),–,–
CCOC(=O)c1[nH]cc(C)c1-c1ccn(-c2ccccc2)c1,–,–,43.4 µM (inactive),–,–
COc1ccc(/C=C2\CCS(=O)(=O)c3ccccc3C2=O)cc1,–,–,31.8 µM (inactive),–,–
c1ccc(/C(=N/Nc2ccccn2)c2ncccn2)cc1,–,–,11.5 µM (inactive),–,–
COc1ccc2ccccc2c1C1=NC(C)(C)CO1,> 100 µM (inactive),> 100 µM (inactive),–,> 100 µM (inactive),GI50 [6]: > 100 µM (inactive); GI50 [9]: > 100 µM (inactive); GI50 [8]: > 100 µM (inactive)
O=C(Nc1ccccc1)c1cc(S(=O)(=O)n2ccnc2O)c(S)cc1Cl,–,–,> 100 µM (inactive),–,–
O=C1CC(n2ccnc2)c2c(Cl)sc(Cl)c21 (centres undefined),–,–,15.3 µM (inactive),–,–
O=[N+]([O-])c1ccc(CSc2c3ccccc3nc3ccccc23)cc1,–,–,18.8 µM (inactive),–,–
CCOC(=O)C(CC(C)C)NC(=O)C(Cc1ccccc1)NC(=O)CNC(=O)OC(C)(C)C (stereo not drawn) (Boc-Gly-Phe-Leu-OEt; configuration not given here),–,–,27.7 µM (inactive),–,–
[N-]=[N+]=Nc1cc(=O)oc2ccccc12,–,> 100 µM (inactive),–,> 100 µM (inactive),GI50 [1]: 42.2 µM (inactive); GI50 [8]: > 100 µM (inactive)
Nc1ccc(S(=O)(=O)Nc2cnc3c(Cl)cccc3n2)cc1 [CHLORSULFAQUINOXALINE],292 µM (inactive),31.4 µM (inactive),> 60.5 µM (inactive),93.1 µM (inactive),GI50 [1]: 2.94 µM (inactive); GI50 [9]: 275 µM (inactive); GI50 [8]: 189 µM (inactive); GI50 [4]: 151 µM (inactive)
CCOC(=O)c1ncn2c1[nH]c(=S)c1ccccc12,> 100 µM (inactive),> 100 µM (inactive),–,> 100 µM (inactive),GI50 [1]: 49.1 µM (inactive); GI50 [6]: > 100 µM (inactive); GI50 [8]: > 100 µM (inactive)
O=C(NC1CCN(Cc2ccccc2)CC1)c1ccccc1I,–,–,51.1 µM (inactive),–,–
COC(=O)C1CCc2c(OC)ccc(OC)c2C1=O (centres undefined),> 100 µM (inactive),> 100 µM (inactive),–,> 100 µM (inactive),GI50 [1]: > 100 µM (inactive); GI50 [8]: > 100 µM (inactive); GI50 [4]: > 100 µM (inactive)
